Laboratory results taken from patent US20020086862A1, “Novel compounds” (AstraZeneca AB, priority 1998, published 2002).

Row | Structure (SMILES) | melting point [°C]
1 | S=c1[nH]c(-c2cccnc2Cl)nn1Cc1ccccc1 [Example 16, 5-(2-Chloro-3-pyridinyl)-1,2-dihydro-2-(phenylmethyl)-3H-1,2,4-triazole-3-thione] | 155 to 156
2 | S=c1[nH]c(-c2ccc(Cl)cc2Cl)nn1Cc1cccc(Oc2ccccc2)c1 [Example 34, 5-(2,4-Dichlorophenyl)-1,2-dihydro-2-[(3-phenoxyphenyl)methyl]-3H-1,2,4-triazole-3-thione] | 180 to 181
3 | Oc1cccc(Cn2nc(-c3ccccc3)[nH]c2=S)c1 [Example 35, 1,2-Dihydro-2-[(3-hydroxyphenyl)methyl]-5-phenyl-3H-1,2,4-triazole-3-thione] | 233 to 235
4 | S=c1[nH]c(-c2ccc(Br)cc2)nn1Cc1ccccc1 [Example 26, 5-(4-Bromophenyl)-1,2-dihydro-2-(phenylmethyl)-3H-1,2,4-triazole-3-thione] | 250 to 251
5 | COC(=O)c1ccc(-c2nn(Cc3ccccc3)c(=S)[nH]2)cc1 [Example 3, 4-[1,2-Dihydro-1-(phenylmethyl)-5-thioxo-3H-1,2,4-triazol-3-yl]benzoic acid, methyl ester] | > 215
6 | COc1ccc(-c2nn(Cc3ccccc3)c(=S)[nH]2)cc1 [Example 23, 1,2-Dihydro-5-(4-methoxyphenyl)-2-(phenylmethyl)-3H-1,2,4-triazole-3-thione] | 235 to 237
7 | S=c1[nH]c(-c2ccc3ccccc3c2Br)nn1Cc1ccccc1 [Example 41, 1,2-Dihydro-5-(1-bromo-2-naphthalenyl)-2-(phenylmethyl)-3H-1,2,4-triazole-3-thione] | 168 to 170
8 | S=c1[nH]c(-c2cc(Cl)cc(Cl)c2)nn1Cc1ccccc1 [Example 29, 5-(3,5-Dichlorophenyl)-1,2-dihydro-2-(phenylmethyl)-3H-1,2,4-triazole-3-thione] | 205 to 212
9 | S=c1[nH]c(-c2ccccc2Br)nn1Cc1ccccc1 [Example 9, 5-(2-Bromophenyl)-1,2-dihydro-2-(phenylmethyl)-3H-1,2,4-triazole-3-thione] | 139 to 140

Next, values leading:

Row | melting point [°C] | Structure (SMILES)
10 | 161 to 163 | Fc1ccc(F)c(Cn2nc(-c3ccccc3Cl)[nH]c2=S)c1 [Example 61, 5-(2-Chlorophenyl)-1,2-dihydro-2-[(2,5-difluorophenyl)methyl]-3H-1,2,4-triazole-3-thione]
11 | 137 to 138 | S=c1[nH]c(-c2ccccc2Cl)nn1Cc1cccc(Oc2ccccc2)c1 [Example 52, 5-(2-Chlorophenyl)-1,2-dihydro-2-[(3-phenyloxy)phenylmethyl]-3H-1,2,4-triazole-3-thione]
12 | 205 to 206 | S=c1[nH]c(-c2ccc(Cl)cc2Cl)nn1Cc1ccc(Cl)cc1 [Example 45, 2-[(4-Chlorophenyl)methyl]-5-(2,4-dichlorophenyl)-1,2-dihydro-3H-1,2,4-triazole-3-thione]
13 | 211 to 215 | CC(C)(C)c1ccc(Cn2nc(-c3ccccc3Cl)[nH]c2=S)cc1 [Example 51, 5-(2-Chlorophenyl)-1,2-dihydro-2-[(4(1,1-dimethylethyl)phenyl)methyl]-3H-1,2,4-triazole-3-thione]
14 | 256 to 258 | O=[N+]([O-])c1ccc(-c2nn(Cc3cccc(Cl)c3)c(=S)[nH]2)cc1 [Example 62, 2-[(3-Chlorophenyl)methyl]-5-(4-nitrophenyl)-1,2-dihydro-3H-1,2,4-triazole-3-thione]
15 | 131 to 133 | S=c1[nH]c(-c2ccccc2Cl)nn1CCc1ccccc1 [Example 66, 5-(2-Chlorophenyl)-1,2-dihydro-2-(2-phenyl)ethyl-3H-1,2,4-triazole-3-thione]
16 | 167 to 168 | FC(F)(F)c1ccc(Cn2nc(-c3ccccc3Cl)[nH]c2=S)cc1 [Example 53, 5-(2-Chlorophenyl)-1,2-dihydro-2-[[4-(trifluoromethyl)phenyl]methyl]-3H-1,2,4-triazole-3-thione]
